# Measured values as given in patent publication US11608341B2, “Substituted tetrahydropyrazolo[3,4-d]pyrimidines and tetrahydropyrazolo[4,3-d]pyrimidines as C5A receptor modulators” (Idorsia Pharmaceuticals Ltd., priority 2018, dated 2023).
# Target: T1, C5AR1 (Homo sapiens, UniProt P21730)
# T1 construct: host or cells: CHO-K1
# T1 sequence (P21730 1-350): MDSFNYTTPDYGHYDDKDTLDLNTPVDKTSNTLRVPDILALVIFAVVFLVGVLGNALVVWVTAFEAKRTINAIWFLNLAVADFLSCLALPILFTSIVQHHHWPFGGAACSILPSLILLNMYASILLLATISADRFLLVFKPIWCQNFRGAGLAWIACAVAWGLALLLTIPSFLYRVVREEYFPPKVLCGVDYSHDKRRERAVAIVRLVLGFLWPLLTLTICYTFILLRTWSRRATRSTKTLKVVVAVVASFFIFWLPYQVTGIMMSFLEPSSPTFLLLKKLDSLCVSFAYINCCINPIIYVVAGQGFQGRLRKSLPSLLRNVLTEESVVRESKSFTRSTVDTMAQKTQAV
# Assay: In vitro assay: antagonism of C5a-induced beta-arrestin recruitment (PathHunter) in CHO-K1 C5AR1 beta-arrestin cell line
# Type: cell-based
# Details: antagonistic activity, 1-10 nM C5a agonist, geometric mean where several measurements, read-out: C5aR IC50
# Summary of the method: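 Antagonist or DMSO added first, then C5a (1-10 nM, added at 6-fold end concentration), 1.5 h at 37 °C. PathHunter detection reagent was added for 45 min at RT before plate reading. IC50s come from antagonist serial dilutions in nmol/l and are geometric means of several measurements.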
smiles,measurement,value
Cc1cccc(F)c1N1CCC(N2Cc3cn(C)nc3N(Cc3ccccc3Cl)C2=O)CC1 [Example 233],IC50,10 nM
CC(=O)N1CCC1Cn1cc2c(n1)N(Cc1ccccc1C(F)(F)F)C(=O)N(C1CCN(c3c(C)cccc3F)CC1)C2 (stereo not shown) [Example 114],IC50,107 nM
"Cc1cccc(F)c1N1CCC(N2C(=O)N(Cc3ccccc3C(F)(F)F)c3n[nH]cc3C2C)CC1 (single isomer, unassigned) [Example 316]",IC50,9 nM
"COc1nccc(Cl)c1N1CCC(N2C(=O)N(Cc3ccccc3C3CC3)c3nn(C)cc3C2C)CC1 (single isomer, unassigned) [Example 378]",IC50,6 nM
COc1nccc(C)c1N1CCC(N2Cc3cn(C)nc3N(Cc3ccccc3C3CC3)C2=O)CC1 [Example 283],IC50,8 nM
"Cc1cccc(F)c1N1CCC(N2C(=O)N(Cc3ccccc3C(F)(F)F)c3cn(CC(C)(F)F)nc3C2C)CC1 (single isomer, unassigned) [Example 254]",IC50,192 nM
Cc1cccc(F)c1N1CCC(N2Cc3cn(CC(C)(F)F)nc3N(Cc3c(Br)cccc3C(F)(F)F)C2=O)CC1 [Example 214],IC50,87 nM
Cc1cccc(F)c1N1CCC(N2Cc3cn(CC(=O)N(C)C)nc3N(Cc3ccccc3C(F)(F)F)C2=O)CC1 [Example 30],IC50,95 nM
COC(=O)N1CC[C@@H]1Cn1cc2c(n1)N(Cc1ccccc1C(F)(F)F)C(=O)N(C1CCN(c3c(C)cccc3F)CC1)C2 [Example 133],IC50,22 nM
Cc1cccc(F)c1N1CCC(N2Cc3nn(C)nc3N(Cc3ccccc3C(F)(F)F)C2=O)CC1 [Example 81],IC50,21 nM
Cc1cccc(F)c1N1CCC(N2Cc3cn(CC(C)CO)nc3N(Cc3ccccc3C(F)(F)F)C2=O)CC1 (stereo not shown) [Example 39],IC50,16 nM
Cc1cccc(F)c1N1CCC(N2Cc3cn(CC4(F)CC4)nc3N(Cc3ncccc3C(F)(F)F)C2=O)CC1 [Example 200],IC50,4 nM
"Cc1cccc(F)c1N1CCC(N2Cc3cn(C)nc3N(C(C)c3ccccc3C(F)(F)F)C2=O)CC1 (single isomer, unassigned) [Example 247]",IC50,21 nM
Cc1cccc(F)c1N1CCC(N2Cc3cn(CCN(C)C(C)C)nc3N(Cc3ccccc3C(F)(F)F)C2=O)CC1 [Example 72],IC50,43 nM
COc1ccc(C(F)(F)F)c(CN2C(=O)N(C3CCN(c4c(C)cccc4F)CC3)Cc3cn(C)nc32)n1 [Example 38],IC50,12 nM
CC1c2cn(C3CCCCO3)nc2N(Cc2ccccc2C2CC2)C(=O)N1C1CCN(c2c(F)cccc2Cl)CC1 (stereo not shown) [Example 365],IC50,45 nM
Cc1ccnc(F)c1N1CCC(N2Cc3cn(C)nc3N(Cc3ccccc3C(F)(F)F)C2=O)CC1 [Example 52],IC50,72 nM
"Cc1cccc(F)c1N1CCCC(N2Cc3cn(C)nc3N(Cc3ccccc3C(F)(F)F)C2=O)C1 (single isomer, unassigned) [Example 241]",IC50,112 nM
CCOC(Cn1cc2c(n1)N(Cc1ccccc1C(F)(F)F)C(=O)N(C1CCN(c3c(C)cccc3F)CC1)C2)OCC [Example 28],IC50,83 nM
Cc1cccc(F)c1N1CCC(N2Cc3c(cnn3CC3CC3)N(Cc3ccccc3C(F)(F)F)C2=O)CC1 [Example 179],IC50,152 nM
Cc1cccc(F)c1N1CCC(N2Cc3c(ncn3C)N(Cc3ccccc3C(F)(F)F)C2=O)CC1 [Example 16],IC50,74 nM
Cc1cccc(F)c1N1CCC(N2Cc3c(cnn3CC3(C)CC3)N(Cc3ccccc3C(F)(F)F)C2=O)CC1 [Example 181],IC50,50 nM
Cc1cccc(F)c1N1CCC(N2Cc3c(cnn3COCC[Si](C)(C)C)N(Cc3ncccc3C(F)(F)F)C2=O)CC1 [Example 230],IC50,37 nM
Cc1cccc(F)c1N1CCC(C)(N2Cc3cn(C)nc3N(Cc3ccccc3C(F)(F)F)C2=O)CC1 [Example 217],IC50,11 nM
Cc1cccc(F)c1N1CCC(N2Cc3cn(CC(F)F)nc3N(Cc3ccccc3C(F)(F)F)C2=O)CC1 [Example 159],IC50,8 nM
"Cc1cccc(F)c1N1CCC(N2C(=O)N(Cc3ccccc3C3CC3)c3nn(C4CC4)cc3C2C)CC1 (single isomer, unassigned) [Example 339]",IC50,12 nM
"Cc1cccc(C)c1N1CCC(N2Cc3cn(C)nc3N(Cc3ccccc3C(F)(F)F)C2=O)C1 (single isomer, unassigned) [Example 57]",IC50,19 nM
Cc1cccc(F)c1N1CCC(N2Cc3nn(CC4(F)CC4)cc3N(Cc3ccccc3C(F)(F)F)C2=O)CC1 [Example 184],IC50,9 nM
Cc1cccc(F)c1N1CCC(N2Cc3cn(C(C)CN)nc3N(Cc3ccccc3C(F)(F)F)C2=O)CC1 (stereo not shown) [Example 79],IC50,676 nM
Cc1cccc(F)c1N1CCC(N2C(=O)N(Cc3ccccc3C(F)(F)F)c3nn(C4CCCCO4)cc3C2C)CC1 (stereo not shown) [Example 313],IC50,13 nM
Cc1cccc(F)c1N1CCC(N2Cc3cnn(CC4CC4)c3N(Cc3ccccc3C(F)(F)F)C2=O)CC1 [Example 210],IC50,46 nM
Cc1cccc(F)c1N1CCC(N2Cc3cn(C[C@H]4CC(F)(F)CN4C(=O)OC(C)(C)C)nc3N(Cc3ccccc3C(F)(F)F)C2=O)CC1 [Example 108],IC50,21 nM
Cc1nc2c(o1)N(Cc1ccccc1C(F)(F)F)C(=O)N(C1CCN(c3c(C)cccc3F)CC1)C2 [Example 89],IC50,54 nM
"CC(c1ccccc1C(F)(F)F)N1C(=O)N(C2CCN(c3c(F)cccc3C#N)CC2)Cc2cn(C)nc21 (single isomer, unassigned) [Example 289]",IC50,55 nM
"Cc1cccc(F)c1N1CCC(N2C(=O)N(Cc3ccccc3C3CC3)c3nn(C)cc3C2C)CC1 (single isomer, unassigned) [Example 317]",IC50,11 nM
COc1nccc(C(F)F)c1N1CCC(N2C(=O)N(Cc3ccccc3C(F)(F)F)c3nn(C4CCCCO4)cc3C2C)CC1 (stereo not shown) [Example 343],IC50,57 nM
COc1cccnc1N1CCC(N2Cc3cn(C)nc3N(Cc3ccccc3C(F)(F)F)C2=O)CC1 [Example 70],IC50,512 nM
Cc1cccc(F)c1N1CCC(N2Cc3cn(C(C)(C)CN)nc3N(Cc3ccccc3C(F)(F)F)C2=O)CC1 [Example 88],IC50,156 nM
Cn1cc2c(n1)N(Cc1ccccc1C(F)(F)F)C(=O)N(C1CCN(c3c(F)cccc3Cl)CC1)C2 [Example 272],IC50,18 nM
Cn1cc2c(n1)N(Cc1ccccc1C1CC1)C(=O)N(C1CCN(c3c(F)cccc3C3CC3)CC1)C2 [Example 307],IC50,30 nM
"Cc1cccc(F)c1N1CCC(N2C(=O)N(Cc3ccccc3C(F)(F)F)c3nn(C4CC4)cc3C2C)CC1 (single isomer, unassigned) [Example 309]",IC50,11 nM
"COc1nccc(C(F)F)c1N1CCC(N2C(=O)N(Cc3ccccc3C3CC3)c3n[nH]cc3C2C)CC1 (single isomer, unassigned) [Example 371]",IC50,1330 nM
"COc1nccc(C(F)F)c1N1CCC(N2C(=O)N(Cc3ccccc3C(F)(F)F)c3nn(C4CC4)cc3C2C)CC1 (single isomer, unassigned) [Example 359]",IC50,185 nM
"CC1c2cn(C)nc2N(Cc2ccccc2C2CC2)C(=O)N1C1CCN(c2c(F)cccc2Br)CC1 (single isomer, unassigned) [Example 385]",IC50,491 nM
"CC1c2c[nH]nc2N(Cc2ccccc2C(F)(F)F)C(=O)N1C1CCN(c2c(F)cccc2Cl)CC1 (single isomer, unassigned) [Example 350]",IC50,4 nM
Cc1cccc(F)c1N1CCC(N2Cc3cn(CCN4CCN(C)CC4)nc3N(Cc3ccccc3C(F)(F)F)C2=O)CC1 [Example 65],IC50,120 nM
Cc1cccc(F)c1N1CCC(N2Cc3cn(CC#N)nc3N(Cc3ccccc3C(F)(F)F)C2=O)CC1 [Example 24],IC50,15 nM
"Cc1cccc(F)c1N1CCC(N2C(=O)N(Cc3ccccc3C(F)(F)F)c3cnn(CC(C)(F)F)c3C2C)CC1 (single isomer, unassigned) [Example 255]",IC50,87 nM
Cc1cccc(F)c1N1CCC(N2Cc3nn(C)cc3N(Cc3ccccc3C3CC3)C2=O)CC1 [Example 259],IC50,49 nM
"COc1nccc(C(F)F)c1N1CCC(N2C(=O)N(Cc3ccccc3C3CC3)c3n[nH]cc3C2C)CC1 (single isomer, unassigned) [Example 370]",IC50,19 nM
COc1nccc(C)c1N1CCC(N2Cc3nn(C4CC4)cc3N(Cc3ccccc3C(F)(F)F)C2=O)CC1 [Example 223],IC50,32 nM
Cc1cccc(F)c1N1CCC(N2Cc3cn(C)nc3N(Cc3ccccc3C(C)C)C2=O)CC1 [Example 231],IC50,17 nM
CC(C)=Cn1cc2c(n1)N(Cc1ccccc1C(F)(F)F)C(=O)N(C1CCN(c3c(C)cccc3F)CC1)C2 [Example 153],IC50,40 nM
Cc1cccc(F)c1N1CCC(N2Cc3cn(CCNC4CC4)nc3N(Cc3ccccc3C(F)(F)F)C2=O)CC1 [Example 71],IC50,24 nM
"Cc1cccc(F)c1N1CCC(N2Cc3cn(CC4CC4(F)F)nc3N(Cc3ccccc3C(F)(F)F)C2=O)CC1 (single isomer, unassigned) [Example 190]",IC50,11 nM
COc1nccc(C)c1N1CCC(N2Cc3n[nH]cc3N(Cc3ccccc3C(F)(F)F)C2=O)CC1 [Example 218],IC50,12 nM
Cc1cccc(F)c1N1CCC(N2Cc3cn(C[C@@H]4CCN4)nc3N(Cc3ccccc3C(F)(F)F)C2=O)CC1 [Example 122],IC50,342 nM
Cc1cccc(F)c1N1CCC(N2Cc3nn(C(C)C)cc3N(Cc3ccccc3C(F)(F)F)C2=O)CC1 [Example 191],IC50,4 nM
Cc1cccc(F)c1N1CCC(N2Cc3cn(C4CN(C(=O)N(C)C)C4)nc3N(Cc3ccccc3C(F)(F)F)C2=O)CC1 [Example 119],IC50,296 nM
Cc1cccc(F)c1N1CCC(N2Cc3cn(CCN4CCCCC4)nc3N(Cc3ccccc3C(F)(F)F)C2=O)CC1 [Example 63],IC50,91 nM
Cc1cccc(F)c1N1CCC(N2Cc3cn(CCN(C)C)nc3N(Cc3ccccc3C(F)(F)F)C2=O)CC1 [Example 60],IC50,56 nM
